Results reported in US12209087B2, “AKT1 modulators” (Alterome Therapeutics, Inc., priority 2022, dated 2025).
Like-named read-outs stand apart in the source and are kept apart here.

Molecular target: T1, full length AKT E17K (Homo sapiens, UniProt P31749, E17K)
T1 construct: host or cells: HEK-293 (ATCC CRL-1573)
Experiment: NanoBRET Target Engagement (TE) Assay
Type: cell-based
Settings: read-out: AKT1 E17K IC50
Procedure, shortened: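 Compound and tracer incubated 2 h before luminescence at donor 450 nm and acceptor 600 nm, with extracellular signal inhibited. EC50 by sigmoidal variable-slope regression.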

[1] = competitive tracer displacement in living cells
[2] = competitive displacement of tracer in cells

T1 sequence (P31749 whole entry E17K): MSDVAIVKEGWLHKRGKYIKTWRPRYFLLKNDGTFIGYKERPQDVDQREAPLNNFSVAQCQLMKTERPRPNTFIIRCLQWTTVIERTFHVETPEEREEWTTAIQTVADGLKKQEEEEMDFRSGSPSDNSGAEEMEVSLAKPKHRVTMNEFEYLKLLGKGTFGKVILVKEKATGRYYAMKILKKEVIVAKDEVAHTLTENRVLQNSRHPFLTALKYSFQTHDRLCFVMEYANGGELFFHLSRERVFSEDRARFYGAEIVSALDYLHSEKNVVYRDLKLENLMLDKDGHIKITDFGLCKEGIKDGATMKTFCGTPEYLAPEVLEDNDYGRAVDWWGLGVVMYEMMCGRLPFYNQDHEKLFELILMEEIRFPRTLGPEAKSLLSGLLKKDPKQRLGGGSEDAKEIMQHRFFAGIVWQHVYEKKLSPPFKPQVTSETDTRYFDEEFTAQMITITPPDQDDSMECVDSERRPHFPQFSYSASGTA

SMILES	IC50 [1] [nM]	IC50 [2] [nM]
N#Cc1nccc(N2CCN(Cc3ccc(-n4c(-c5cccnc5N)nc5ccc(-c6ccccc6C#N)nc54)cc3)CC2)n1 [Example 293, 4-(4-(4-(2-(2-Aminopyridin-3-yl)-5-(2-cyanophenyl)-3H-imidazo[4,5-b]pyridin-3-yl)benzyl)piperazin-1-yl)pyrimidine-2-carbonitrile]	< 15	–
N#Cc1ccc(-c2ccc3nc(-c4cccnc4N)n(-c4ccc(CN5CCN(c6ccnc(C#N)n6)CC5)cc4)c3n2)cc1 [Example 294, 4-(4-(4-(2-(2-Aminopyridin-3-yl)-5-(4-cyanophenyl)-3H-imidazo[4,5-b]pyridin-3-yl)benzyl)piperazin-1-yl)pyrimidine-2-carbonitrile]	15 to 60	–
N#Cc1nccc(N2CCN(Cc3ccc(-n4c(-c5cccnc5N)nc5ccc(-c6cccc(F)c6)nc54)cc3)CC2)n1 [Example 295, 4-(4-(4-(2-(2-Aminopyridin-3-yl)-5-(3-fluorophenyl)-3H-imidazo[4,5-b]pyridin-3-yl)benzyl)piperazin-1-yl)pyrimidine-2-carbonitrile]	< 15	–
N#Cc1nccc(N2CCN(Cc3ccc(-n4c(-c5cccnc5N)nc5ccc(-c6cccc(Cl)c6)nc54)cc3)CC2)n1 [Example 296, 4-(4-(4-(2-(2-Aminopyridin-3-yl)-5-(3-chlorophenyl)-3H-imidazo[4,5-b]pyridin-3-yl)benzyl)piperazin-1-yl)pyrimidine-2-carbonitrile]	< 15	–
N#Cc1ccnc(N2CCN(Cc3ccc(-n4c(-c5cccnc5N)nc5ccc(-c6cccc(Cl)c6)nc54)cc3)CC2)n1 [Example 297, 2-(4-(4-(2-(2-Aminopyridin-3-yl)-5-(3-chlorophenyl)-3H-imidazo[4,5-b]pyridin-3-yl)benzyl)piperazin-1-yl)pyrimidine-4-carbonitrile]	60 to 600	–
N#Cc1nccc(NC2CCN(Cc3ccc(-n4c(-c5cccnc5N)nc5ccc(C6CC6)nc54)cc3)CC2)n1 [Example 298, 4-((1-(4-(2-(2-Aminopyridin-3-yl)-5-cyclopropyl-3H-imidazo[4,5-b]pyridin-3-yl)benzyl)piperidin-4-yl)amino)pyrimidine-2-carbonitrile]	< 15	–
N#Cc1nccc(NC2CCN(Cc3ccc(-n4c(-c5cccnc5N)nc5ccc(C6CCOCC6)nc54)cc3)CC2)n1 [Example 299, 4-((1-(4-(2-(2-Aminopyridin-3-yl)-5-(tetrahydro-2H-pyran-4-yl)-3H-imidazo[4,5-b]pyridin-3-yl)benzyl)piperidin-4-yl)amino)pyrimidine-2-carbonitrile]	< 15	–
N#Cc1ncnc(NC2CN(Cc3ccc(-n4c(-c5cccnc5N)nc5ccc(-c6ccccc6)nc54)cc3)C2)n1 [Example 300, 4-((1-(4-(2-(2-Aminopyridin-3-yl)-5-phenyl-3H-imidazo[4,5-b]pyridin-3-yl)benzyl)azetidin-3-yl)amino)-1,3,5-triazine-2-carbonitrile]	15 to 60	–
N#Cc1ncnc(N2CC3(CCN(Cc4ccc(-n5c(-c6cccnc6N)nc6ccc(-c7ccccc7)nc65)cc4)C3)C2)n1 [Example 301, 4-(6-(4-(2-(2-Aminopyridin-3-yl)-5-phenyl-3H-imidazo[4,5-b]pyridin-3-yl)benzyl)-2,6-diazaspiro[3.4]octan-2-yl)-1,3,5-triazine-2-carbonitrile]	< 15	–
N#Cc1nccc(N2CCC3(CCN(Cc4ccc(-n5c(-c6cccnc6N)nc6ccc(-c7ccccc7)nc65)cc4)C3)C2)n1 (stereo not drawn) [Example 302, 4-(7-(4-(2-(2-Aminopyridin-3-yl)-5-phenyl-3H-imidazo[4,5-b]pyridin-3-yl)benzyl)-2,7-diazaspiro[4.4]nonan-2-yl)pyrimidine-2-carbonitrile]	< 15	–
N#Cc1ncnc(N2CC3(CN(Cc4ccc(-n5c(-c6cccnc6N)nc6ccc(-c7ccccc7)nc65)cc4)C3)C2)n1 [Example 303, 4-(6-(4-(2-(2-Aminopyridin-3-yl)-5-phenyl-3H-imidazo[4,5-b]pyridin-3-yl)benzyl)-2,6-diazaspiro[3.3]heptan-2-yl)-1,3,5-triazine-2-carbonitrile]	< 15	–
N#Cc1ncnc(N2CCN(Cc3ccc(-n4c(-c5cccnc5N)nc5ccc(-c6ccccc6Cl)nc54)cc3)CC2)n1 [Example 304, 4-(4-(4-(2-(2-Aminopyridin-3-yl)-5-(2-chlorophenyl)-3H-imidazo[4,5-b]pyridin-3-yl)benzyl)piperazin-1-yl)-1,3,5-triazine-2-carbonitrile]	< 15	–
N#Cc1nccc(NC2CCN(Cc3ccc(-n4c(-c5cccnc5N)nc5ccc(-c6ccccc6Cl)nc54)cc3)CC2)n1 [Example 305, 4-((1-(4-(2-(2-Aminopyridin-3-yl)-5-(2-chlorophenyl)-3H-imidazo[4,5-b]pyridin-3-yl)benzyl)piperidin-4-yl)amino)pyrimidine-2-carbonitrile]	< 15	–
N#Cc1ccnc(NC2CCN(Cc3ccc(-n4c(-c5cccnc5N)nc5ccc(-c6ccccc6Cl)nc54)cc3)CC2)n1 [Example 306, 2-((1-(4-(2-(2-Aminopyridin-3-yl)-5-(2-chlorophenyl)-3H-imidazo[4,5-b]pyridin-3-yl)benzyl)piperidin-4-yl)amino)pyrimidine-4-carbonitrile]	15 to 60	–
N#Cc1cc(NC2CCN(Cc3ccc(-n4c(-c5cccnc5N)nc5ccc(-c6ccccc6Cl)nc54)cc3)CC2)ncn1 [Example 307, 6-((1-(4-(2-(2-Aminopyridin-3-yl)-5-(2-chlorophenyl)-3H-imidazo[4,5-b]pyridin-3-yl)benzyl)piperidin-4-yl)amino)pyrimidine-4-carbonitrile]	60 to 600	–
N#Cc1nccc(NC2CCN(Cc3ccc(-n4c(-c5cccnc5N)nc5ccc(-c6ccc(Cl)cc6)nc54)cc3)CC2)n1 [Example 308, 4-((1-(4-(2-(2-Aminopyridin-3-yl)-5-(4-chlorophenyl)-3H-imidazo[4,5-b]pyridin-3-yl)benzyl)piperidin-4-yl)amino)pyrimidine-2-carbonitrile]	< 15	–
N#Cc1ccnc(N2CCN(Cc3ccc(-n4c(-c5cccnc5N)nc5ccc(-c6cccc(F)c6)nc54)cc3)CC2)n1 [Example 309, 2-(4-(4-(2-(2-Aminopyridin-3-yl)-5-(3-fluorophenyl)-3H-imidazo[4,5-b]pyridin-3-yl)benzyl)piperazin-1-yl)pyrimidine-4-carbonitrile]	15 to 60	–
N#Cc1cc(N2CCN(Cc3ccc(-n4c(-c5cccnc5N)nc5ccc(-c6cccc(F)c6)nc54)cc3)CC2)ncn1 [Example 310, 6-(4-(4-(2-(2-Aminopyridin-3-yl)-5-(3-fluorophenyl)-3H-imidazo[4,5-b]pyridin-3-yl)benzyl)piperazin-1-yl)pyrimidine-4-carbonitrile]	< 15	–
N#Cc1cc(NC2CCN(Cc3ccc(-n4c(-c5cccnc5N)nc5ccc(-c6cccc(F)c6)nc54)cc3)CC2)ncn1 [Example 311, 6-((1-(4-(2-(2-Aminopyridin-3-yl)-5-(3-fluorophenyl)-3H-imidazo[4,5-b]pyridin-3-yl)benzyl)piperidin-4-yl)amino)pyrimidine-4-carbonitrile]	< 15	–
N#Cc1ncnc(N2CCN(Cc3ccc(-n4c(-c5cccnc5N)nc5ccc(-c6ccccc6F)nc54)cc3)CC2)n1 [Example 312, 4-(4-(4-(2-(2-Aminopyridin-3-yl)-5-(2-fluorophenyl)-3H-imidazo[4,5-b]pyridin-3-yl)benzyl)piperazin-1-yl)-1,3,5-triazine-2-carbonitrile]	< 15	–
N#Cc1ccnc(NC2CCN(Cc3ccc(-n4c(-c5cccnc5N)nc5ccc(-c6ccccc6F)nc54)cc3)CC2)n1 [Example 313, 2-((1-(4-(2-(2-Aminopyridin-3-yl)-5-(2-fluorophenyl)-3H-imidazo[4,5-b]pyridin-3-yl)benzyl)piperidin-4-yl)amino)pyrimidine-4-carbonitrile]	< 15	–
N#Cc1cc(N2CCN(Cc3ccc(-n4c(-c5cccnc5N)nc5ccc(-c6ccccc6F)nc54)cc3)CC2)ncn1 [Example 314, 6-(4-(4-(2-(2-Aminopyridin-3-yl)-5-(2-fluorophenyl)-3H-imidazo[4,5-b]pyridin-3-yl)benzyl)piperazin-1-yl)pyrimidine-4-carbonitrile]	< 15	–
N#Cc1cc(NC2CCN(Cc3ccc(-n4c(-c5cccnc5N)nc5ccc(-c6ccccc6F)nc54)cc3)CC2)ncn1 [Example 315, 6-((1-(4-(2-(2-Aminopyridin-3-yl)-5-(2-fluorophenyl)-3H-imidazo[4,5-b]pyridin-3-yl)benzyl)piperidin-4-yl)amino)pyrimidine-4-carbonitrile]	15 to 60	–
N#Cc1nccc(NC2CCN(Cc3ccc(-n4c(-c5cccnc5N)nc5ccc(-c6ccccc6F)nc54)cc3)CC2)n1 [Example 316, 4-((1-(4-(2-(2-Aminopyridin-3-yl)-5-(2-fluorophenyl)-3H-imidazo[4,5-b]pyridin-3-yl)benzyl)piperidin-4-yl)amino)pyrimidine-2-carbonitrile]	< 15	–
N#Cc1nccc(N2CCN(Cc3ccc(-n4c(-c5cccnc5N)nc5ccc(N6CCCNC(=O)C6)nc54)cc3)CC2)n1 [Example 317, 4-(4-(4-(2-(2-Aminopyridin-3-yl)-5-(3-oxo-1,4-diazepan-1-yl)-3H-imidazo[4,5-b]pyridin-3-yl)benzyl)piperazin-1-yl)pyrimidine-2-carbonitrile]	60 to 600	–
N#Cc1nccc(NC2CCN(Cc3ccc(-n4c(-c5cccnc5N)nc5ccc(N6CCCNC(=O)C6)nc54)cc3)CC2)n1 [Example 318, 4-((1-(4-(2-(2-Aminopyridin-3-yl)-5-(3-oxo-1,4-diazepan-1-yl)-3H-imidazo[4,5-b]pyridin-3-yl)benzyl)piperidin-4-yl)amino)pyrimidine-2-carbonitrile]	–	15 to 60
N#Cc1ccc(-c2ccc3nc(-c4cccnc4N)n(-c4ccc(CN5CCN(c6nccc(C#N)n6)CC5)cc4)c3n2)cc1 [Example 319, 2-(4-(4-(2-(2-Aminopyridin-3-yl)-5-(4-cyanophenyl)-3H-imidazo[4,5-b]pyridin-3-yl)benzyl)piperazin-1-yl)pyrimidine-4-carbonitrile]	–	60 to 600
